The text below walks through data of patent publication US20190216093A1, “COMPOSITIONS AND RELATED METHODS FOR AGRICULTURE” (priority 2017, published 2019).

Entries after “also recorded” stand apart in the source; their conditions may differ.

Test [1] has as its system Acyrthosiphon pisum aphids. In words: Aphid survival monitoring. The test is classed as in vivo.
The test system of test [2] is endosymbiotic Buchnera. As to the kind of experiment: Buchnera/aphid DNA copy numbers by qPCR. The test is classed as in vivo, Buchnera aphidicola. As for the experimental part: After 7 days of treatment, DNA was extracted from multiple aphids from each treatment group. Briefly, the aphid body surface was sterilized by dipping the aphid into a 6% bleach solution for approximately 5 seconds. Aphids were then rinsed in sterile water and DNA was extracted from each individual aphid using a DNA extraction kit (Qiagen, DNeasy kit) according to manufacturer's instructions. DNA concentration was measured using a nanodrop nucleic acid quantification, and Buchnera and aphid DNA copy numbers were measured by qPCR. […]
After 8 days of treatment, DNA was extracted from multiple aphids from each treatment group. Briefly, the aphid body surface was sterilized by dipping the aphid into a 6% bleach solution for approximately 5 seconds. Aphids were then rinsed in sterile water and DNA was extracted from each individual aphid using a DNA extraction kit (Qiagen, DNeasy kit) according to manufacturer's instructions. DNA concentration was measured using a nanodrop nucleic acid quantification, and Buchnera and aphid DNA copy numbers were measured by qPCR.
After 8 days of treatment, DNA was extracted from the remaining aphids in each treatment group. Briefly, the aphid body surface was sterilized by dipping the aphid into a 6% bleach solution for approximately 5 seconds. Aphids were then rinsed in sterile water and DNA was extracted from each individual aphid using a DNA extraction kit (Qiagen, DNeasy kit) according to manufacturer's instructions. DNA concentration was measured using a nanodrop nucleic acid quantification, and Buchnera and aphid DNA copy numbers were measured by qPCR.
After 7 of treatment, DNA was extracted from the remaining aphids in each treatment group. Briefly, the aphid body surface was sterilized by dipping the aphid into a 6% bleach solution for approximately 5 seconds. Aphids were then rinsed in sterile water and DNA was extracted from each individual aphid using a DNA extraction kit (Qiagen, DNeasy kit) according to manufacturer's instructions. DNA concentration was measured using a nanodrop nucleic acid quantification, and Buchnera and aphid DNA copy numbers were measured by qPCR.
Briefly, the aphid body surface was sterilized by dipping the aphid into a 6% bleach solution for approximately 5 seconds. Aphids were then rinsed in sterile water and DNA was extracted from each individual aphid using a DNA extraction kit (Qiagen, DNeasy kit) according to manufacturer's instructions. DNA concentration was measured using a nanodrop nucleic acid quantification, and Buchnera and aphid DNA copy numbers were measured by qPCR.
After 3 days of treatment, DNA was extracted from the remaining living aphids from each treatment group. Briefly, the aphid body surface was sterilized by dipping the aphid into a 6% bleach solution for approximately 5 seconds. Aphids were then rinsed in sterile water and DNA was extracted from each individual aphid using a DNA extraction kit (Qiagen, DNeasy kit) according to manufacturer's instructions. DNA concentration was measured using a nanodrop nucleic acid quantification, and Buchnera and aphid DNA copy numbers were measured by qPCR. […]
Background: Quantitative PCR measures a nucleic acid by following its amplification.

The test system of test [3] is Acyrthosiphon pisum aphids. As to the kind of experiment: Aphid developmental stage monitoring. The test is classed as in vivo. The note with it: for aphids that did not mature further than the 4th instar stage: eNASCO, 11 days post-treatment.
Test [4] has as its system gram-negative and gram-positive organisms. The note with it: cited from earlier work.
The test system of test [5] is gram-negative and gram-positive bacteria as well as fungi. The note with it: cited from earlier work.
Where [6] appears, read: LSR-1, 100 μg/ml rifampicin in artificial diet without essential amino acids, through plants.

Take `CO[C@H]1/C=C/O[C@@]2(C)Oc3c(C)c(O)c4c(O)c(c(/C=N/N5CCN(C)CC5)c(O)c4c3C2=O)NC(=O)/C(C)=C\C=C\[C@H](C)[C@H](O)[C@@H](C)[C@@H](O)[C@@H](C)[C@H](OC(C)=O)[C@@H]1C` [rifampicin, reference compound]: in test [1] (setting [6]), the “all aphids succumbed to treatment by” value is at most 9 days and the “aphids began dying after” value is 1 days. In test [2] (LSR-1, 100 μg/ml rifampicin through plants, 7 days of treatment), the “Buchnera/aphid DNA copies, fold less than control” value was ~4 -fold less.
`CC(=O)CCC(=O)O` [levulinic acid]: in test [3] (eNASCO 1st and 2nd instar, 0.03 or 0.3% levulinic acid, leaf injection and through plant), the aphid developmental stage result was “Development was delayed; also recorded: resulted in delayed aphid development”. The “aphids that did not mature further than the 4th instar stage” value in test [3] (0.03% levulinic acid) was about 23%; in test [3] (0.3% levulinic acid), about 63%. In test [1] (eNASCO, 0.03% levulinic acid, difference did not reach statistical significance), the aphid mortality entry is given as “higher mortality compared to control treated aphids”. The aphid survival result was “dose-dependent decrease in survival; also recorded: decrease in insect survival” in test [1] (eNASCO, 0.03 or 0.3% levulinic acid) and “survival was significantly less” in test [1] (eNASCO, 0.3% levulinic acid, 11-day experiment). In addition, the “Buchnera/aphid DNA copies, fold less than control” value in test [2] (0.03 or 0.3% levulinic acid in water, 7 days) is ~6 -fold less. Besides, in test [2] (0.03 or 0.3% levulinic acid, seven and eleven days post-treatment), the Buchnera/aphid ratio result was “reduced endosymbiotic Buchnera”.
`O=C/C=C/c1ccccc1` [trans-cinnemaldehyde]: the aphid developmental stage result in test [3] (5% trans-cinnemaldehyde) was “remained at the 1st instar stage throughout the course of the experiment”; in test [3] (LSR-1 1st and 2nd instar, trans-cinnemaldehyde 0.05%, 0.5%, 5% in water, leaf perfusion and through plants, 3 days) it was “none of the aphids matured past the second instar stage”; in test [3] (LSR-1 1st and 2nd instar, trans-cinnemaldehyde 0.05%, 0.5%, 5% in water, leaf perfusion and through plants, 3 days, listed as Trans-cinnemaldehyde), “resulted in delayed aphid development”. In addition, the aphid survival rate result in test [1] (0.05%, 0.5%, and 5% trans-cinnemaldehyde, 3 days) was “dose-dependent decrease in survival; also recorded: significantly lower”. Besides, the “Buchnera/aphid DNA copies, fold less than control” value in test [2] (0.5 and 5% of trans-cinnemaldehyde, 3 days) is listed as ~870 -fold less. For the same molecule, the “Buchnera/aphid DNA copies” value in test [2] (lowest concentration of trans-cinnemaldehyde (0.5%), 3 days) is listed as “high ratios of Buchnera/aphid DNA copies”. Moreover, the “Buchnera/aphid DNA (symbiont titer)” value in test [2] (trans-cinnemaldehyde 0.05%, 0.5%, 5%, 3 days post-treatment) is “reduced endosymbiotic Buchnera”. Moreover, the antimicrobial activity entry in test [4] is “antimicrobial activity against both gram-negative and gram-positive organisms”.
As to `Cc1cc2c(C(C)C)c(O)c(O)c(C=O)c2c(O)c1-c1c(C)cc2c(C(C)C)c(O)c(O)c(C=O)c2c1O` [gossypol, gossypol acetic acid], in test [1] (0.5% gossypol), the “all aphids succumbed to treatment by” value is recorded as at most 4 days and the “aphids began dying after” value is 2 days. Further, the “Buchnera/aphid DNA copies, fold less than control” value in test [2] (0.25 and 0.5% of gossypol, 5 or 13 days) is on record as ~4 -fold less.

B1: NCR335: cationic NCR peptide (peptide)
chain: MQIGKNMVETPKLDYVIIFFFLYFFFRQMIILRLNTTFRPLNFKMLRFWGQNRNIMKHRGQKVHFSLILSDCKTNKDCPKLRRANVRCRKSYCVPI
Consider B1, for which the antimicrobial activities entry in test [5] was “effective against gram-negative and gram-positive bacteria as well as fungi”.
